Assays:
Rattus norvegicus [1] = assay: Antihypertensive activity in spontaneously hypertensive Wistar-Okamoto rat assessed as duration of action at 0.312 mg/kg, po; type: functional
Rattus norvegicus [2] = assay: Antihypertensive activity in spontaneously hypertensive Wistar-Okamoto rat assessed as maximal fall in mean arterial pressure at 0.312 mg/kg, po; type: functional, Artery
Canis familiaris [3] = assay: In vivo beta-adrenergic receptor blockade in iv dosed anesthetized dog assessed as inhibition of isoproterenol-induced tachycardia; type: functional; settings: Canis lupus familiaris
Rattus norvegicus [4] = assay: Antihypertensive activity in spontaneously hypertensive Wistar-Okamoto rat assessed as maximal fall in mean arterial pressure at 1.25 mg/kg, po; type: functional, Artery
Canis familiaris [5] = assay: In vivo beta-adrenergic receptor blockade in iv dosed anesthetized dog assessed as inhibition of isoproterenol-induced hypotension; type: functional; settings: Canis lupus familiaris
Rattus norvegicus [6] = assay: Antihypertensive activity in spontaneously hypertensive Wistar-Okamoto rat assessed as maximal fall in mean arterial pressure at 0.625 mg/kg, po; type: functional, Artery
Canis familiaris [7] = assay: Vasodilatory activity in anesthetized dog assessed as increase in iliac blood flow […] measured after 320 ug/kg, iv beta-adrenergic receptor blocker timolol administration; type: functional, Canis lupus familiaris, Artery
Rattus norvegicus [8] = assay: Antihypertensive activity in spontaneously hypertensive Wistar-Okamoto rat assessed as maximal fall in mean arterial pressure at 20 mg/kg, ip; type: functional, Artery; settings: route intraperitoneal
Canis familiaris [9] = assay: Vasodilatory activity in anesthetized dog assessed as increase in iliac blood flow […] ia; type: functional, Canis lupus familiaris, Artery
Rattus norvegicus [10] = assay: Antihypertensive activity in spontaneously hypertensive Wistar-Okamoto rat assessed as duration of action at 20 mg/kg, ip; type: functional; settings: route intraperitoneal
Canis familiaris [11] = assay: Vasodilatory activity in anesthetized dog assessed as increase in iliac blood flow at 250 mg, ia measured after 800 ug/kg, iv beta-adrenergic receptor blocker timolol administration; type: functional, Canis lupus familiaris, Artery
Rattus norvegicus [12] = assay: Antihypertensive activity in spontaneously hypertensive Wistar-Okamoto rat assessed as duration of action at 20 mg/kg, po; type: functional
Rattus norvegicus [13] = assay: Antihypertensive activity in spontaneously hypertensive Wistar-Okamoto rat assessed as maximal fall in mean arterial pressure at 20 mg/kg, po; type: functional, Artery
Canis familiaris [14] = assay: Vasodilatory activity in anesthetized dog assessed as increase in iliac blood flow […] measured after 2000 ug/kg, iv beta-adrenergic receptor blocker timolol administration; type: functional, Canis lupus familiaris, Artery
Rattus norvegicus [15] = assay: Antihypertensive activity in spontaneously hypertensive Wistar-Okamoto rat assessed as duration of action at 1.25 mg/kg, po; type: functional
Canis familiaris [16] = assay: Vasodilatory activity in anesthetized dog assessed as increase in iliac blood flow at 64 mg, ia measured after 800 ug/kg, iv beta-adrenergic receptor blocker timolol administration; type: functional, Canis lupus familiaris, Artery
Rattus norvegicus [17] = assay: Antihypertensive activity in spontaneously hypertensive Wistar-Okamoto rat assessed as maximal fall in mean arterial pressure at 0.078 mg/kg, po; type: functional, Artery
Rattus norvegicus [18] = assay: Antihypertensive activity in spontaneously hypertensive Wistar-Okamoto rat assessed as duration of action at 2 mg/kg, po; type: functional
Rattus norvegicus [19] = assay: Antihypertensive activity in spontaneously hypertensive Wistar-Okamoto rat assessed as maximal fall in mean arterial pressure at 2 mg/kg, po; type: functional, Artery
Rattus norvegicus [20] = assay: Antihypertensive activity in spontaneously hypertensive Wistar-Okamoto rat assessed as duration of action at 1 mg/kg, po; type: functional
Rattus norvegicus [21] = assay: Antihypertensive activity in spontaneously hypertensive Wistar-Okamoto rat assessed as maximal fall in mean arterial pressure at 1 mg/kg, po; type: functional, Artery
Rattus norvegicus [22] = assay: Antihypertensive activity in spontaneously hypertensive Wistar-Okamoto rat assessed as duration of action at 5 mg/kg, po; type: functional
Rattus norvegicus [23] = assay: Antihypertensive activity in spontaneously hypertensive Wistar-Okamoto rat assessed as maximal fall in mean arterial pressure at 5 mg/kg, po; type: functional, Artery
Canis familiaris [24] = assay: Vasodilatory activity in anesthetized dog assessed as increase in iliac blood flow at 64 mg, ia measured after 2000 ug/kg, iv beta-adrenergic receptor blocker timolol administration; type: functional, Canis lupus familiaris, Artery
Canis familiaris [25] = assay: Vasodilatory activity in anesthetized dog assessed as increase in iliac blood flow at 250 mg, ia measured after 2000 ug/kg, iv beta-adrenergic receptor blocker timolol administration; type: functional, Canis lupus familiaris, Artery
Canis familiaris [26] = assay: Vasodilatory activity in anesthetized dog assessed as increase in iliac blood flow […] measured after 800 ug/kg, iv beta-adrenergic receptor blocker timolol administration; type: functional, Canis lupus familiaris, Artery

Structure (SMILES) | Activity (Rattus norvegicus [2]) [mmHg] | ED50 (Canis familiaris [3]) [mg/kg] | Activity (Rattus norvegicus [4]) [mmHg] | ED50 (Canis familiaris [5]) [mg/kg] | Activity (Canis familiaris [9]) [mL/min] | Time (Rattus norvegicus [12]) [h] | Activity (Rattus norvegicus [13]) [mmHg] | Activity (Canis familiaris [14]) [mL/min] | Time (Rattus norvegicus [15]) [h] | Time (Rattus norvegicus [22]) [h] | Activity (Rattus norvegicus [23]) [mmHg] | further results
CC(C)(C)NC[C@H](O)COc1nsnc1N1CCOCC1 [TIMOLOL] | 32 | 0.0024 | -1 | 0.0013 | – | – | – | – | – | – | – | Time (Rattus norvegicus [1]): 8 h; Activity (Rattus norvegicus [6]): 0 mmHg
CC(C)(C)NCC(O)COc1ccc(-c2ncc[nH]2)cc1 (configuration not stated) | – | – | – | – | 36 | – | – | – | – | – | – | Activity (Canis familiaris [7]): 31 mL/min; Activity (Rattus norvegicus [8]): 33 mmHg; Time (Rattus norvegicus [10]): 1 h
CC(C)(C)NCC(O)COc1ncccc1C(F)(F)F (configuration not stated) | 15 | < 0.001 | 28 | < 0.001 | 100 | 18 | 36 | 145 | 4 | – | – | Activity (Canis familiaris [11]): 60 mL/min; Activity (Canis familiaris [16]): 41 mL/min
CC(C)(C)NC[C@H](O)COc1ccc(-c2ncc[nH]2)cc1 | – | 0.067 | – | > 1 | – | – | – | – | – | – | – | –
CC(C)(C)NC[C@H](O)COc1ncccc1C#N.Cl | 30 | 0.0015 | 47 | 0.0052 | 98 | – | – | 90 | >12 | – | – | Time (Rattus norvegicus [1]): 1 h; Activity (Canis familiaris [11]): 62 mL/min; Activity (Canis familiaris [16]): 38 mL/min; Activity (Rattus norvegicus [17]): 19 mmHg
NNc1nncc2ccccc12 [HYDRALAZINE] | – | – | – | – | 66 | – | – | – | – | – | – | Time (Rattus norvegicus [18]): >7 h; Activity (Rattus norvegicus [19]): 40 mmHg; Time (Rattus norvegicus [20]): 6 h; Activity (Rattus norvegicus [21]): 30 mmHg
CC(C)(C)NCC(O)COc1ccc(-c2nc(C(F)(F)F)c[nH]2)cc1 (configuration not stated) | 21 | 0.009 | 36 | 0.036 | 79 | – | – | 15 | 18 | 18 | 49 | Time (Rattus norvegicus [1]): 7 h
Cc1cnc(-c2ccc(OC[C@@H](O)CNC(C)(C)C)cc2)[nH]1 | – | 0.03 | – | > 1 | – | – | – | – | – | – | – | –
CC(C)NCC(O)COc1cccc2ccccc12 (configuration not stated) [PROPRANOLOL] | – | 0.051 | 12 | 0.019 | – | 12 | 14 | – | 8 | <8 | 7 | –
CC(C)(C)NC[C@@H](O)COc1ncccc1C#N.Cl | – | 0.1 | 22 | 0.1 | – | 4 | 40 | 82 | – | 1 | 27 | Activity (Canis familiaris [24]): 13 mL/min; Activity (Canis familiaris [25]): 22 mL/min
CC(C)(C)NCC(O)COc1ccc(C#N)cn1 (configuration not stated) | – | – | – | – | -13 | – | 15 | 19 | – | – | – | Activity (Canis familiaris [26]): -1 mL/min
CC(C)(C)NCC(O)COc1ccc(-c2ncc(-c3ccccc3)[nH]2)cc1 (configuration not stated) | – | 0.038 | 20 | 0.083 | 46 | >24 | 54 | 42 | – | 4 | 30 | –

— ChEMBL document CHEMBL3244122, “Symbiotic approach to drug design: antihypertensive beta-adrenergic blocking agents” (J Med Chem, 1979)
